Tests used:
Experiment in all cases: fitness (endpoint OD595 vs no drug) (fraction); higher = more growth
S. pneumoniae D39V = system: S. pneumoniae D39V
Procedure, shortened: (§1)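 Fitness compares growth at the stationary-phase transition with the robust mean of no-drug control wells, as a ratio of optical densities. The ratio is capped at 1. Wells of 384-well plates held 30 µl, or 55 µl for S. pneumoniae, inoculated at OD595 0.01. Readings at OD595 every 30 min for 14 h at 37 °C were corrected against the first reading.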

B. subtilis 168 = system: B. subtilis 168
Procedure, shortened: as §1

S. aureus DSM 20231 = system: S. aureus DSM 20231
Procedure, shortened: as §1
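Further: OD595 on entry to stationary phase over no-drug wells; at most 1.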

CN(C)[C@@H]1C(O)=C(C(N)=O)C(=O)[C@@]2(O)C(O)=C3C(=O)c4c(O)ccc(Cl)c4[C@@](C)(O)[C@H]3C[C@@H]12 [Chlortetracycline] + CN[C@@H]1[C@H](O)[C@H](NC)[C@H]2O[C@@]3(O)C(=O)C[C@@H](C)O[C@H]3O[C@@H]2[C@H]1O [Spectinomycin]
fitness, one replicate
Details | first compound 0.006 µg/mL | first compound 0.012 µg/mL | first compound 0.024 µg/mL | first compound 0.048 µg/mL
S. aureus DSM 20231, partner 4 µg/mL | 0.669 | – | – | –
S. aureus DSM 20231, partner 8 µg/mL | 0.707 | – | – | –
S. aureus DSM 20231, partner 16 µg/mL | 0.655 | – | – | –
S. aureus DSM 20231, partner 32 µg/mL | – | 0.298 | 0.058 | 0.0249
S. aureus DSM 20231, partner 64 µg/mL | – | 0.0229 | 0.0093 | 0.0056
S. pneumoniae D39V, partner 4 µg/mL | – | 0.901 | 0.859 | 0.795
S. pneumoniae D39V, partner 8 µg/mL | – | 0.853 | 0.859 | 0.78

fitness
Details | partner 2 µg/mL | partner 4 µg/mL | partner 8 µg/mL | partner 16 µg/mL
B. subtilis 168, first compound 0.0475 µg/mL | 0.885 | 0.884 | 0.752 | –
B. subtilis 168, first compound 0.095 µg/mL | 0.803 | 0.806 | 0.691 | –
B. subtilis 168, first compound 0.19 µg/mL | 0.523 | 0.409 | 0.199 | –
S. aureus DSM 20231, first compound 0.012 µg/mL | – | 0.529 | – | 0.494
S. aureus DSM 20231, first compound 0.024 µg/mL | – | 0.203 | – | –
S. aureus DSM 20231, first compound 0.048 µg/mL | – | 0.137 | 0.0943 | 0.05
S. pneumoniae D39V, first compound 0.375 µg/mL | – | 0.0802 | 0.0586 | 0.0693
S. pneumoniae D39V, first compound 0.75 µg/mL | – | 0.0886 | 0.0941 | 0.0722
S. pneumoniae D39V, first compound 1.5 µg/mL | – | 0.0871 | 0.0754 | 0.0779

CN(C)[C@@H]1C(O)=C(C(N)=O)C(=O)[C@@]2(O)C(O)=C3C(=O)c4c(O)ccc(Cl)c4[C@@](C)(O)[C@H]3C[C@@H]12 [Chlortetracycline] + CO/N=C(\C(=O)N[C@@H]1C(=O)N2C(C(=O)O)=C(COC(C)=O)CS[C@H]12)c1csc(N)n1 [Cefotaxime]
Details | fitness
B. subtilis 168, first compound 0.0475 µg/mL, partner 0.5 µg/mL | 0.326
B. subtilis 168, first compound 0.0475 µg/mL, partner 1 µg/mL | 0.19
B. subtilis 168, first compound 0.0475 µg/mL, partner 2 µg/mL | 0.147
B. subtilis 168, first compound 0.095 µg/mL, partner 0.5 µg/mL | 0.199
B. subtilis 168, first compound 0.095 µg/mL, partner 1 µg/mL | 0.0513
B. subtilis 168, first compound 0.095 µg/mL, partner 2 µg/mL | 0.117
B. subtilis 168, first compound 0.19 µg/mL, partner 0.5 µg/mL | 0.129
B. subtilis 168, first compound 0.19 µg/mL, partner 1 µg/mL | 0.0806
B. subtilis 168, first compound 0.19 µg/mL, partner 2 µg/mL | 0.111
S. aureus DSM 20231, first compound 0.012 µg/mL, partner 0.039 µg/mL | 0.533
S. aureus DSM 20231, first compound 0.012 µg/mL, partner 0.078 µg/mL | 0.608
S. aureus DSM 20231, first compound 0.012 µg/mL, partner 0.156 µg/mL | 0.561
S. aureus DSM 20231, first compound 0.012 µg/mL, partner 0.312 µg/mL | 0.44
S. aureus DSM 20231, first compound 0.024 µg/mL, partner 0.312 µg/mL | 0.271
S. aureus DSM 20231, first compound 0.048 µg/mL, partner 0.039 µg/mL | 0.258
S. aureus DSM 20231, first compound 0.048 µg/mL, partner 0.078 µg/mL | 0.137
S. aureus DSM 20231, first compound 0.048 µg/mL, partner 0.156 µg/mL | 0.125
S. aureus DSM 20231, first compound 0.048 µg/mL, partner 0.312 µg/mL | 0.108
S. pneumoniae D39V, first compound 0.012 µg/mL, partner 0.0018 µg/mL | 0.88
S. pneumoniae D39V, first compound 0.012 µg/mL, partner 0.0035 µg/mL | 0.94
S. pneumoniae D39V, first compound 0.012 µg/mL, partner 0.007 µg/mL | 0.885
S. pneumoniae D39V, first compound 0.024 µg/mL, partner 0.0018 µg/mL | 0.664
S. pneumoniae D39V, first compound 0.024 µg/mL, partner 0.0035 µg/mL | 0.641
S. pneumoniae D39V, first compound 0.024 µg/mL, partner 0.007 µg/mL | 0.629
S. pneumoniae D39V, first compound 0.048 µg/mL, partner 0.0018 µg/mL | 0.301
S. pneumoniae D39V, first compound 0.048 µg/mL, partner 0.0035 µg/mL | 0.251
S. pneumoniae D39V, first compound 0.048 µg/mL, partner 0.007 µg/mL | 0.238
S. pneumoniae D39V, first compound 0.375 µg/mL, partner 0.0018 µg/mL | 0.0683
S. pneumoniae D39V, first compound 0.375 µg/mL, partner 0.0035 µg/mL | 0.0612
S. pneumoniae D39V, first compound 0.375 µg/mL, partner 0.007 µg/mL | 0.0585
S. pneumoniae D39V, first compound 0.75 µg/mL, partner 0.0018 µg/mL | 0.086
S. pneumoniae D39V, first compound 0.75 µg/mL, partner 0.0035 µg/mL | 0.0734
S. pneumoniae D39V, first compound 0.75 µg/mL, partner 0.007 µg/mL | 0.0886
S. pneumoniae D39V, first compound 1.5 µg/mL, partner 0.0018 µg/mL | 0.0498
S. pneumoniae D39V, first compound 1.5 µg/mL, partner 0.0035 µg/mL | 0.0657
S. pneumoniae D39V, first compound 1.5 µg/mL, partner 0.007 µg/mL | 0.0651

fitness, one replicate
Details | partner 0.00775 µg/mL | partner 0.0155 µg/mL | partner 0.031 µg/mL | partner 0.039 µg/mL | partner 0.0625 µg/mL | partner 0.078 µg/mL | partner 0.125 µg/mL | partner 0.156 µg/mL | partner 0.25 µg/mL | partner 0.312 µg/mL
B. subtilis 168, first compound 0.0475 µg/mL | 0.783 | 0.597 | 0.5 | – | 0.532 | – | 0.381 | – | 0.326 | –
B. subtilis 168, first compound 0.095 µg/mL | 0.703 | 0.536 | 0.38 | – | 0.458 | – | 0.283 | – | 0.186 | –
B. subtilis 168, first compound 0.19 µg/mL | 0.413 | 0.149 | 0.0377 | – | 0.135 | – | 0.0644 | – | 0.06 | –
S. aureus DSM 20231, first compound 0.006 µg/mL | – | – | – | 0.775 | – | 0.689 | – | 0.677 | – | 0.635

— the supplement of paper PMC10627819
